Measured values reported in patent US11597933B2, “Combination therapy of lymphoma” (The Trustees of Columbia University in the City of New York, priority 2017, dated 2023).
Like-named read-outs stand apart in the source and are kept apart here.

Tests used:
[1] = system: Pfeiffer; experiment: Cell viability assay, Pfeiffer; assay type: cell-based; conditions: for IC50: Pfeiffer
Description: (§1) OCI-LY1, SU-DHL-2, SU-DHL-6, Pfeiffer, Farage, Toledo, Riva, HBL-1, Jeko-1, Z-138, H9, and HH were obtained from ATCC. OCI-LY7, OCI-LY10, SU-DHL-10 and OCI-LY3 were obtained from DSMZ. PF382, and P12 were a gift from the laboratory of Adolfo Fernando. TLOM-1 and MT-1 were obtained from Kyoto University; and MT-2 was obtained from Memorial Sloan Kettering Cancer Center. All cell lines were authenticated and screened for mycoplasma using the ATCC/Promega STR Authentication Testing Kit and Lonza MycoAlert.
(§2) Synergy was assessed by excess over bliss (EOB). […] Criteria for analyzing interactions between biologically active agents. Advances in cancer research 1981; 35:269-335.
(§3) To understand the effects of EZH2 inhibition and HDAC inhibition in cell lines with or without EZH2 dysfunction and HAT mutations, a panel of 21 lymphoma cell lines were exposed to GSK126, an EZH2 inhibitor, and romidepsin, a pan-HDAC inhibitor, as single agents. Both B-cell and TCL were selected in order to establish a range of drug sensitivity and mutational status. EZH2 status and HAT mutational status were confirmed.

[2] = system: MT-1; experiment: Cell viability assay, MT-1; assay type: cell-based
Description: as §1, §2, §3

[3] = system: HEK 293T cells; experiment: H3K27 acetylation and methylation in HEK 293T cells; assay type: cell-based; conditions: single agent exposure in HEK 293T cells
[4] = system: SU-DHL-10; experiment: Cell viability assay, SU-DHL-10; assay type: cell-based
Description: as §1, §2, §3

[5] = system: P12; experiment: Cell viability assay, P12; assay type: cell-based
Description: as §1, §2, §3

[6] = system: Riva; experiment: Cell viability assay, Riva; assay type: cell-based
Description: as §1, §2, §3

[7] = system: TLOM-1; experiment: Cell viability assay, TLOM-1; assay type: cell-based
Description: as §1, §2, §3

[8] = mouse, in vivo
Description: (§4) F. Serum romidepsin pharmacokinetic parameters after single injection of GSK and romidepsin over 24 hours.

[9] = system: MT-2; experiment: Cell viability assay, MT-2; assay type: cell-based
Description: as §1, §2, §3

[10] = system: PF-382; experiment: Cell viability assay, PF-382; assay type: cell-based
Description: as §1, §2, §3

[11] = system: Jeko-1; experiment: Cell viability assay, Jeko-1; assay type: cell-based
Description: as §1, §2, §3

[12] = system: OCI-LY1; experiment: Cell viability assay, OCI-LY1; assay type: cell-based
Description: as §1, §2, §3

[13] = system: HH; experiment: Cell viability assay, HH; assay type: cell-based
Description: as §1, §2, §3

[14] = system: OCI-LY7; experiment: Cell viability assay, OCI-LY7; assay type: cell-based
Description: as §1, §2, §3

[15] = system: SU-DHL-6; experiment: Cell viability assay, SU-DHL-6; assay type: cell-based
Description: as §1, §2, §3

[16] = system: HBL-1; experiment: Cell viability assay, HBL-1; assay type: cell-based
Description: as §1, §2, §3

[17] = system: OCI-LY3; experiment: Cell viability assay, OCI-LY3; assay type: cell-based
Description: as §1, §2, §3

[18] = system: Z-138; experiment: Cell viability assay, Z-138; assay type: cell-based
Description: as §1, §2, §3

[19] = system: Farage; experiment: Cell viability assay, Farage; assay type: cell-based
Description: as §1, §2, §3

[20] = system: SU-DHL-2; experiment: Cell viability assay, SU-DHL-2; assay type: cell-based
Description: as §1, §2, §3

[21] = system: OCI-LY10; experiment: Cell viability assay, OCI-LY10; assay type: cell-based
Description: as §1, §2, §3

[22] = system: H9; experiment: Cell viability assay, H9; assay type: cell-based
Description: as §1, §2, §3

[23] = system: Toledo; experiment: Cell viability assay, Toledo; assay type: cell-based
Description: as §1, §2, §3

[24] = system: RbAp 46/48 (RBBP4); experiment: Acetyl-lysine immunoprecipitation and mass spectrometry; assay type: cell-based; conditions: SU-DHL-10 cells, acetyl-lysine antibody IP, compared to control, FDR<1.0%
Description: Immunoprecipitation was performed using Thermo Scientific™ Pierce™ MS-Compatible Magnetic IP Kit (#84840). Protein was incubated with EZH2 or acetylated-lysine antibody. Antibody bound proteins were eluted and run into SDS PAGE. The excised gel lane pieces were reduced, alkylated, and digested in Trypsin Gold (Promega) digestion buffer (Thermo Fischer Scientific). Condensed evaporated water was collected by brief centrifugation using microcentrifuge (Eppendorf). The gel pieces and digestion reaction were mixed with 2.5% Trifluoretic Acids (TFA, Thermo Fischer Scientific). Peptides were extracted with 70% acetonitrile (ACN/5% TFA mixture) (Thermo Fischer Scientific). The extracts were pooled and dried to completion in SpeedVac.
The concentrated peptide mix was reconstituted in a solution of 2% ACN, 2% formic acid (FA) for MS analysis. Peptides were eluted from the column using a Dionex Ultimate 3000 Nano LC system. Using Thermo Fusion Tribrid mass spectrometer (Thermo Scientific), eluted peptides were electro sprayed. Mass spectrometer-scanning functions and HPLC gradients were controlled by the Xcalibur data system (Thermo Fischer).
Tandem mass spectra from raw files were searched against uniprot_human_170129.fasta data base using the Proteome Discoverer 2.1 (Thermo Fischer). The […] protein database was downloaded as FASTA-formatted sequences from Uniprot protein database (January 2017). […]

[25] = Pharmacokinetic analysis of serum and tumor samples; conditions: single exposure to GSK126 and romidepsin, over 24 hours
Description: as §4

[26] = in vivo; conditions: mouse, serum, ip
Description: as §4

[27] = system: R/R DLBCL or follicular lymphoma (FL); conditions: 800 mg BID, cited from earlier work
[28] = GC-DLBCL, EZH2 Wildtype, 144 hours, read-out: IC50 GSK126
[29] = 72 h, read-out: IC50 Romidespin
[30] = Homo sapiens, 72 h, read-out: IC50 Romidespin

CCN(c1cc(C#CCN2CCOCC2)cc(C(=O)NCc2c(C)cc(C)[nH]c2=O)c1C)[C@H]1CC[C@H](N(C)CCOC)CC1 [EPZ011989]
sensitivity, cell viability curve ([1]; Pfeiffer (GC-DLBCL), single agent): potent sensitivity

CC[C@H](C)n1cc(C)c2c(C(=O)NCc3c(C)cc(C)[nH]c3=O)cc(-c3ccc(N4CCNCC4)nc3)cc21 [GSK126]
IC50 ([2]; MT-1, ATLL, EZH2 Overexpression, 144 hours, read-out: IC50 GSK126): 4400 nM | status of acetylation or methylation of H3K27 [3]: did not significantly change | IC50 ([4]; SU-DHL-10, GC-DLBCL, EZH2 Y641F, Y646S, 144 hours, read-out: IC50 GSK126): 700 nM | IC50 ([5]; P12, T-ALL, EZH2 Wildtype, 144 hours, read-out: IC50 GSK126): 6000 nM | IC50 ([6]; Riva, ABC-DLBCL, EZH2 Wildtype, 144 hours, read-out: IC50 GSK126): 7500 nM | IC50 ([7]; TLOM-1, ATLL, EZH2 Overexpression, 144 hours, read-out: IC50 GSK126): 1500 nM | Cmax [8]: 3.15 µM | serum AUC0-last [8]: 2828.57 ng·h/mL | Cmax ([8]; ip): 1657.5 ± 413.6 ng/mL | IC50 ([9]; MT-2, ATLL, EZH2 Overexpression, 144 hours, read-out: IC50 GSK126): 9000 nM | IC50 ([10]; PF-382, T-ALL, EZH2 Wildtype, 144 hours, read-out: IC50 GSK126): 5600 nM | IC50 ([11]; Jeko-1, Mantle Cell, EZH2 Overexpression, 144 hours, read-out: IC50 GSK126): 10000 nM | IC50 ([12]; OCI-LY1, GC-DLBCL, EZH2 Y602N, Y646N, 144 hours, read-out: IC50 GSK126): 3700 nM | IC50 ([13]; CTCL, EZH2 Wildtype, 144 hours, read-out: IC50 GSK126): 4400 nM | IC50 ([14]; OCI-LY7, GC-DLBCL, EZH2 Wildtype, 144 hours, read-out: IC50 GSK126): 4300 nM | IC50 ([15]; SU-DHL-6, GC-DLBCL, EZH2 Y602N, Y646N, 144 hours, read-out: IC50 GSK126): 3100 nM | IC50 ([16]; HBL-1, ABC-DLBCL, EZH2 Wildtype, 144 hours, read-out: IC50 GSK126): 4200 nM | IC50 ([17]; OCI-LY3, ABC-DLBCL, EZH2 Wildtype, 144 hours, read-out: IC50 GSK126): 7200 nM | IC50 ([18]; Z-138, Mantle Cell, EZH2 Overexpression, 144 hours, read-out: IC50 GSK126): 7100 nM | IC50 [19, 28]: 10000 nM | IC50 ([1]; GC-DLBCL, EZH2 A677G, 144 hours, read-out: IC50 GSK126): 100 nM | IC50 ([20]; SU-DHL-2, ABC-DLBCL, EZH2 Wildtype, 144 hours, read-out: IC50 GSK126): 4400 nM | IC50 ([21]; OCI-LY10, ABC-DLBCL, EZH2 Wildtype, 144 hours, read-out: IC50 GSK126): 6400 nM | IC50 ([22]; H9, CTCL, EZH2 Wildtype, 144 hours, read-out: IC50 GSK126): 6100 nM | IC50 [23, 28]: 6000 nM

C/C=C1\NC(=O)[C@H]2CSSCC/C=C/[C@H](CC(=O)N[C@H](C(C)C)C(=O)N2)OC(=O)[C@H](C(C)C)NC1=O [romidepsin]
IC50 [2, 29]: 2.8 nM | IC50 ([4]; Homo sapiens, SU-DHL10, 72 h, read-out: IC50 Romidespin, SU-DHL-10, GC-DLBCL, EP300 mis mut/CREBBP trunc mut, 72-hour exposure): 2.59 nM | IC50 ([4]; read-out: IC50 Romidespin, SU-DHL-10, GC-DLBCL, EP300 mis mut/CREBBP trunc mut, 72-hour exposure): 2.1 nM | increase of RbAp 46/48 (RBBP4) estimated by spectral counts [24]: 2 fold | IC50 ([5]; P12, 72 h, read-out: IC50 Romidespin): 4.3 nM | IC50 [6, 29]: 1.5 nM | IC50 [7, 29]: 4.3 nM | IC50 ([9]; Homo sapiens, MT2, 72 h, read-out: IC50 Romidespin): 2.7 nM | IC50 ([10]; Homo sapiens, PF-382, 72 h, read-out: IC50 Romidespin): 3.5 nM | IC50 ([11]; Homo sapiens, JeKo-1, 72 h, read-out: IC50 Romidespin): 1.1 nM | IC50 ([12]; Homo sapiens, OCI-Ly1, 72 h, read-out: IC50 Romidespin): 2.5 nM | IC50 [13, 30]: 1.1 nM | IC50 ([14]; Homo sapiens, OCI-Ly7, 72 h, read-out: IC50 Romidespin): 1.5 nM | IC50 ([15]; Homo sapiens, SU-DHL-6, 72 h, read-out: IC50 Romidespin): 2 nM | IC50 ([16]; HBL1, 72 h, read-out: IC50 Romidespin): 1 nM | IC50 ([17]; Homo sapiens, OCI-Ly3, 72 h, read-out: IC50 Romidespin): 1.7 nM | IC50 ([18]; Homo sapiens, Z-138, 72 h, read-out: IC50 Romidespin): 1.1 nM | intratumor concentration [25]: below the level of detection | Cmax [26]: 25.1 ng/mL | IC50 [19, 29]: 1.7 nM | IC50 [1, 30]: 6 nM | IC50 ([20]; Homo sapiens, SU-DHL-2, 72 h, read-out: IC50 Romidespin): 1.3 nM | IC50 ([21]; Homo sapiens, OCI-Ly10, 72 h, read-out: IC50 Romidespin): 1 nM | IC50 ([22]; Homo sapiens, H9, 72 h, read-out: IC50 Romidespin): 1.3 nM | IC50 [23, 30]: 1 nM

CCN(c1cc(-c2ccc(CN3CCOCC3)cc2)cc(C(=O)NCc2c(C)cc(C)[nH]c2=O)c1C)C1CCOCC1 [tazemetostat]
tolerability ([27]; preliminary results): well tolerated | treatment related emergent adverse events: anemia [27]: 10% | treatment related emergent adverse events: nausea [27]: 14% | treatment related emergent adverse events: thrombocytopenia [27]: 13%
